The structures appear in SMILES notation.

For this assay, the species on record is Rattus norvegicus. Kind of assay: Effects of isomer (100 uM) upon 10 uM L-HCA-induced depolarization; Control. The class given is functional.
As for `NC(C(=O)O)[C@H](CC(=O)O)c1ccc(Cl)cc1` (stereo partly drawn), the Others is recorded as 130.4%.

`N[C@H](C(=O)O)[C@@H](CC(=O)O)c1ccc(Cl)cc1` yielded an Others of 114.5%.

Molecule `N[C@@H](C(=O)O)[C@H](CC(=O)O)c1ccc(Cl)cc1` registered an Others of 94.2%.

The values above are taken from ChEMBL document CHEMBL1129410, “Diastereoselective synthesis of all four isomers of 3-(4-chlorophenyl) glutamic acid: identification of the isomers responsible for the potentiation of L-homocysteic acid-evoked depolarizations in neonatal rat motoneurons” (1996).
